*1 amine or outer side, *2 acyl side, *3 side chain or, on linkers, in order; H or OH if unused. Where a SMILES comes first, the peptide text is derived from it. [ ]: non-standard residue; d: D form. Gly(oct-7-en-1-yl) = C=CCCCCCC[C@H](N)C(=O)O; dGly(6-heptenyl) = C=CCCCCC[C@@H](N)C(=O)O; Ala(5-hexenyl) = C=CCCCCC[C@H](N)C(=O)O; dNle(6-vinyl) = C=CCCCC[C@@H](N)C(=O)O; X1 = CCCCCCC[C@H](N[*:1])C(=O)[*:2]; X2 = C=CCCCC[C@H](N[*:1])C(=O)[*:2] Where only a bound is given, the exact number is not on record here.

This assay deals with Phospholipid-transporting ATPase ABCA1 (Mus musculus, UniProt P41233). Put plainly: Induction of ABCA1-mediated [3H]cholesterol efflux in mouse RAW 264.7 macrophages after 24 hrs.
Phospholipid-transporting ATPase ABCA1, sequence (P41233 whole entry): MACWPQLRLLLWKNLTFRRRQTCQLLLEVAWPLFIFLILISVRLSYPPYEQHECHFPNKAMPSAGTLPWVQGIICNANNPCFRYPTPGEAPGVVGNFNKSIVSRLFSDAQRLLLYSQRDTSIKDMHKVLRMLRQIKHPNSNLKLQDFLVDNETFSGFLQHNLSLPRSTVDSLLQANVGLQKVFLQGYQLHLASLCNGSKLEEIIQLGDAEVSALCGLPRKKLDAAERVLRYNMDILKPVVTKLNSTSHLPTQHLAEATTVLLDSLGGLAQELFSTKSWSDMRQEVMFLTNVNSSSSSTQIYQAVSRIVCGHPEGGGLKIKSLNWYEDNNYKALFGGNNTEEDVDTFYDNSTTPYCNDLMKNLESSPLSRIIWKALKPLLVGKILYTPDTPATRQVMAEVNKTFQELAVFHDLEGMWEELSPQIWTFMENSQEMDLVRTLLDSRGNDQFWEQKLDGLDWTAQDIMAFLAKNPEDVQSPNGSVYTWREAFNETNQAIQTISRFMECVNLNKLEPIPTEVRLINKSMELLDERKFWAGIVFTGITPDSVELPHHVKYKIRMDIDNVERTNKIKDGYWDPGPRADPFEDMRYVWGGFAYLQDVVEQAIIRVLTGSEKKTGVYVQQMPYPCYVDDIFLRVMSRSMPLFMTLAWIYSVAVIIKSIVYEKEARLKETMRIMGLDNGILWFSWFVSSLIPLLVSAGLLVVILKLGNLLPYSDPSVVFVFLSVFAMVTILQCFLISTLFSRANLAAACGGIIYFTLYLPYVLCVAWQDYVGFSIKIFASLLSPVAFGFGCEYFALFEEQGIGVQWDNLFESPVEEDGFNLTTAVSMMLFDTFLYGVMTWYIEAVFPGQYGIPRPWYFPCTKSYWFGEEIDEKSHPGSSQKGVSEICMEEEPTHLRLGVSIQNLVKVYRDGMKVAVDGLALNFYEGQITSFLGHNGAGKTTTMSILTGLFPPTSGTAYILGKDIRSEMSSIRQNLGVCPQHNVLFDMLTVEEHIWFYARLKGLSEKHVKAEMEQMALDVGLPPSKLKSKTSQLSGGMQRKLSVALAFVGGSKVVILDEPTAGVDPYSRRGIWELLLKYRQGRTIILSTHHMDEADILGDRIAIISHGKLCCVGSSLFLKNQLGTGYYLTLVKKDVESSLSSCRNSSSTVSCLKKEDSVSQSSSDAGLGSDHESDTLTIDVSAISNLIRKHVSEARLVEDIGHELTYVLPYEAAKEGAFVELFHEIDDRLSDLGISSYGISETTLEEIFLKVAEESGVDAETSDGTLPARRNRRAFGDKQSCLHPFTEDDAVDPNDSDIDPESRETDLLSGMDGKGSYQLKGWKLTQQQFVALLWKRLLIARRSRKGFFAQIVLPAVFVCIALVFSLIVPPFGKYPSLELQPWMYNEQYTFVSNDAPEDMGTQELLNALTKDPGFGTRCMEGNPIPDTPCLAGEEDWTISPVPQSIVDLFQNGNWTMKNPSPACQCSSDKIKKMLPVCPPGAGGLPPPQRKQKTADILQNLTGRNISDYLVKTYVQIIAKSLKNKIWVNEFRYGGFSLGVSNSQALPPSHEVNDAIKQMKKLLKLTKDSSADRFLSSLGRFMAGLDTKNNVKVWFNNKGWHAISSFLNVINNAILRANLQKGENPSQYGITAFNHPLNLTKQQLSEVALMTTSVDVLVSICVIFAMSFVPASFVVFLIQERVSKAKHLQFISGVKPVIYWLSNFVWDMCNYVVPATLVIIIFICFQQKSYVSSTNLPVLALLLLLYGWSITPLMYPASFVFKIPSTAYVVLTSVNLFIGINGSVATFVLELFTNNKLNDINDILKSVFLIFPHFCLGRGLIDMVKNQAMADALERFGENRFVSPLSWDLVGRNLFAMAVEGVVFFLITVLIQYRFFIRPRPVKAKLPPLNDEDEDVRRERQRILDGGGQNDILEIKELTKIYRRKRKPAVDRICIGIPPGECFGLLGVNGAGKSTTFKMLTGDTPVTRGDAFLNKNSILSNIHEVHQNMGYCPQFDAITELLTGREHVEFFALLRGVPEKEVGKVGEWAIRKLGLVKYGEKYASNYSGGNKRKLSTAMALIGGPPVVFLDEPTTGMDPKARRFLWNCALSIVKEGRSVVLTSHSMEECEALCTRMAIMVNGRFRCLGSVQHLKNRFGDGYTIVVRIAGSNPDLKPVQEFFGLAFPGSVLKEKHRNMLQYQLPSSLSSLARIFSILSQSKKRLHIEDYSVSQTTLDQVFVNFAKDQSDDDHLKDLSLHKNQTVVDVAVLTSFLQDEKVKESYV
`C=CCCCCC[C@@H](NC(=O)[C@H](CCCCN)NC(=O)[C@H](CCC(N)=O)NC(=O)[C@H](CCCCN)NC(=O)[C@H](CC(C)C)NC(=O)[C@H](C)NC(=O)[C@H](CCC(=O)O)NC(=O)[C@H](CC(C)C)NC(=O)[C@H](CCC(=O)O)NC(=O)[C@H](CCC(=O)O)NC(=O)[C@H](CC(N)=O)NC(=O)[C@H](CC(C)C)NC(=O)[C@H](CCCCN)NC(=O)[C@H](CCC(=O)O)NC(=O)[C@H](CCCNC(=N)N)NC(=O)[C@H](Cc1ccccc1)NC(=O)[C@H](CCC(=O)O)NC(=O)[C@H](CC(=O)O)NC(=O)[C@H](CC(C)C)NC(=O)[C@@H](NC(=O)[C@@H]1CCCN1C(C)=O)C(C)C)C(=O)N[C@@H](CCCCN)C(N)=O` gave an EC50 of more than 100000 nM.

In turn, `C=CCCCCC[C@H](NC(=O)[C@H](CCC(=O)O)NC(=O)[C@H](CC(N)=O)NC(=O)[C@H](CC(C)C)NC(=O)[C@H](CCCCN)NC(=O)[C@H](CCC(=O)O)NC(=O)[C@H](CCCNC(=N)N)NC(=O)[C@H](Cc1ccccc1)NC(=O)[C@H](CCC(=O)O)NC(=O)[C@H](CC(=O)O)NC(=O)[C@H](CC(C)C)NC(=O)[C@@H](NC(=O)[C@@H]1CCCN1C(C)=O)C(C)C)C(=O)N[C@@H](CC(C)C)C(=O)N[C@@H](CCC(=O)O)C(=O)N[C@@H](C)C(=O)N[C@@H](CC(C)C)C(=O)N[C@@H](CCCCN)C(=O)N[C@@H](CCC(N)=O)C(=O)N[C@@H](CCCCN)C(=O)N[C@@H](CC(C)C)C(=O)N[C@@H](CCCCN)C(N)=O` (Ac-PVLDEFREKLNE[Ala(5-hexenyl)]LEALKQKLK-NH2) had an EC50 of 2400 nM.

On to `C=CCCCCC[C@H](NC(=O)[C@H](CCC(N)=O)NC(=O)[C@H](CCCCN)NC(=O)[C@H](CC(C)C)NC(=O)[C@H](C)NC(=O)[C@H](CCC(=O)O)NC(=O)[C@H](CC(C)C)NC(=O)[C@H](CCCCCC=C)NC(=O)[C@H](CCC(=O)O)NC(=O)[C@H](CC(N)=O)NC(=O)[C@H](CC(C)C)NC(=O)[C@H](CCCCN)NC(=O)[C@H](CCC(=O)O)NC(=O)[C@H](CCCN=C(N)N)NC(=O)[C@H](Cc1ccccc1)NC(=O)[C@H](CCC(=O)O)NC(=O)[C@H](CC(=O)O)NC(=O)[C@H](CC(C)C)NC(=O)[C@@H](NC(=O)[C@@H]1CCCN1C(C)=O)C(C)C)C(=O)N[C@@H](CC(C)C)C(=O)N[C@@H](CCCCN)C(N)=O` (Ac-PVLDEFREKLNE[Ala(5-hexenyl)]LEALKQ[Ala(5-hexenyl)]LK-NH2), for which it took 900 nM to reach a half-maximal effect (EC50).

On to `C=CCCCCCC[C@H](NC(=O)[C@H](CCC(=O)O)NC(=O)[C@H](CC(N)=O)NC(=O)[C@H](CC(C)C)NC(=O)[C@H](CCCCN)NC(=O)[C@H](CCC(=O)O)NC(=O)[C@H](CCCN=C(N)N)NC(=O)[C@H](Cc1ccccc1)NC(=O)[C@H](CCC(=O)O)NC(=O)[C@H](CC(=O)O)NC(=O)[C@H](CC(C)C)NC(=O)[C@@H](NC(=O)[C@@H]1CCCN1C(C)=O)C(C)C)C(=O)N[C@@H](CC(C)C)C(=O)N[C@@H](CCC(=O)O)C(=O)N[C@@H](C)C(=O)N[C@@H](CC(C)C)C(=O)N[C@@H](CCCCN)C(=O)N[C@@H](CCC(N)=O)C(=O)N[C@@H](CCCCN)C(=O)N[C@@H](CC(C)C)C(=O)N[C@@H](CCCCN)C(N)=O` (Ac-PVLDEFREKLNE[Gly(oct-7-en-1-yl)]LEALKQKLK-NH2), for which a half-maximal effect (EC50) was put at 700 nM.

As for `CCCCCCC[C@H](NC(=O)[C@H](CCC(=O)O)NC(=O)[C@H](CC(N)=O)NC(=O)[C@H](CC(C)C)NC(=O)[C@H](CCCCN)NC(=O)[C@H](CCC(=O)O)NC(=O)[C@H](CCCN=C(N)N)NC(=O)[C@H](Cc1ccccc1)NC(=O)[C@H](CCC(=O)O)NC(=O)[C@H](CC(=O)O)NC(=O)[C@H](CC(C)C)NC(=O)[C@@H](NC(=O)[C@@H]1CCCN1C(C)=O)C(C)C)C(=O)N[C@@H](CC(C)C)C(=O)N[C@@H](CCC(=O)O)C(=O)N[C@@H](C)C(=O)N[C@@H](CC(C)C)C(=O)N[C@@H](CCCCN)C(=O)N[C@@H](CCC(N)=O)C(=O)N[C@@H](CCCCN)C(=O)N[C@@H](CC(C)C)C(=O)N[C@@H](CCCCN)C(N)=O` (Ac-PVLDEFREKLNE[X1]LEALKQKLK-NH2), the EC50 worked out at 700 nM.

As to `C=CCCCC[C@H](NC(=O)[C@H](CCC(=O)O)NC(=O)[C@H](CC(N)=O)NC(=O)[C@H](CC(C)C)NC(=O)[C@H](CCCCN)NC(=O)[C@H](CCC(=O)O)NC(=O)[C@H](CCCNC(=N)N)NC(=O)[C@H](Cc1ccccc1)NC(=O)[C@H](CCC(=O)O)NC(=O)[C@H](CC(=O)O)NC(=O)[C@H](CC(C)C)NC(=O)[C@@H](NC(=O)[C@@H]1CCCN1C(C)=O)C(C)C)C(=O)N[C@@H](CC(C)C)C(=O)N[C@@H](CCC(=O)O)C(=O)N[C@@H](C)C(=O)N[C@@H](CC(C)C)C(=O)N[C@@H](CCCCN)C(=O)N[C@@H](CCC(N)=O)C(=O)N[C@@H](CCCCN)C(=O)N[C@@H](CC(C)C)C(=O)N[C@@H](CCCCN)C(N)=O` (Ac-PVLDEFREKLNE[X2]LEALKQKLK-NH2), a half-maximal response (EC50) required 1400 nM.

Regarding `C=CCCCCC[C@@H](NC(=O)[C@H](CCC(=O)O)NC(=O)[C@H](CC(N)=O)NC(=O)[C@H](CC(C)C)NC(=O)[C@H](CCCCN)NC(=O)[C@H](CCC(=O)O)NC(=O)[C@H](CCCN=C(N)N)NC(=O)[C@H](Cc1ccccc1)NC(=O)[C@H](CCC(=O)O)NC(=O)[C@H](CC(=O)O)NC(=O)[C@H](CC(C)C)NC(=O)[C@@H](NC(=O)[C@@H]1CCCN1C(C)=O)C(C)C)C(=O)N[C@@H](CC(C)C)C(=O)N[C@@H](CCC(=O)O)C(=O)N[C@@H](C)C(=O)N[C@@H](CC(C)C)C(=O)N[C@@H](CCCCN)C(=O)N[C@@H](CCC(N)=O)C(=O)N[C@@H](CCCCN)C(=O)N[C@@H](CC(C)C)C(=O)N[C@@H](CCCCN)C(N)=O` (Ac-PVLDEFREKLNE[dGly(6-heptenyl)]LEALKQKLK-NH2), the EC50 came to 9500 nM.

As for `C=CCCCC[C@@H](NC(=O)[C@H](CCC(=O)O)NC(=O)[C@H](CC(N)=O)NC(=O)[C@H](CC(C)C)NC(=O)[C@H](CCCCN)NC(=O)[C@H](CCC(=O)O)NC(=O)[C@H](CCCN=C(N)N)NC(=O)[C@H](Cc1ccccc1)NC(=O)[C@H](CCC(=O)O)NC(=O)[C@H](CC(=O)O)NC(=O)[C@H](CC(C)C)NC(=O)[C@@H](NC(=O)[C@@H]1CCCN1C(C)=O)C(C)C)C(=O)N[C@@H](CC(C)C)C(=O)N[C@@H](CCC(=O)O)C(=O)N[C@@H](C)C(=O)N[C@@H](CC(C)C)C(=O)N[C@@H](CCCCN)C(=O)N[C@@H](CCC(N)=O)C(=O)N[C@@H](CCCCN)C(=O)N[C@@H](CC(C)C)C(=O)N[C@@H](CCCCN)C(N)=O` (Ac-PVLDEFREKLNE[dNle(6-vinyl)]LEALKQKLK-NH2), the EC50 turned out to be 31000 nM.

Regarding `C=CCCCCC[C@H](NC(=O)[C@H](CCC(N)=O)NC(=O)[C@H](CCCCN)NC(=O)[C@H](CC(C)C)NC(=O)[C@H](C)NC(=O)[C@H](CCC(=O)O)NC(=O)[C@H](CC(C)C)NC(=O)[C@H](CCCCCC=C)NC(=O)[C@H](CCC(=O)O)NC(=O)[C@H](CC(N)=O)NC(=O)[C@H](CC(C)C)NC(=O)[C@H](CCCCN)NC(=O)[C@H](CCC(=O)O)NC(=O)[C@H](CCCNC(=N)N)NC(=O)[C@H](CCCCCC=C)NC(=O)[C@H](CCC(=O)O)NC(=O)[C@H](CC(=O)O)NC(=O)[C@H](CC(C)C)NC(=O)[C@@H](NC(=O)[C@@H]1CCCN1C(C)=O)C(C)C)C(=O)N[C@@H](CC(C)C)C(=O)N[C@@H](CCCCN)C(N)=O` (Ac-PVLDE[Ala(5-hexenyl)]REKLNE[Ala(5-hexenyl)]LEALKQ[Ala(5-hexenyl)]LK-NH2), the EC50 was 1800 nM.

Usually EC50 stands for the concentration needed to bring the measured effect to its halfway point.
